According to PubChem BioAssay (NCI):
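A five-concentration, 48-hour dose response in 96-well plates underlies each endpoint, interpolated linearly between surrounding concentrations. TGI: concentration producing complete growth inhibition.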

Key:
Experiment in all cases: NCI-60 cell line screen, 48 h
786-0 renal = tested on: 786-0 renal
A498 renal = tested on: A498 renal
A549 NSCLC = tested on: A549 NSCLC
ACHN renal = tested on: ACHN renal
BT-549 breast = tested on: BT-549 breast
CAKI-1 renal = tested on: CAKI-1 renal
CCRF-CEM leukemia = tested on: CCRF-CEM leukemia
COLO 205 colon = tested on: COLO 205 colon
DU-145 prostate = tested on: DU-145 prostate
EKVX NSCLC = tested on: EKVX NSCLC
HCC-2998 colon = tested on: HCC-2998 colon
HCT-116 colon = tested on: HCT-116 colon
HCT-15 colon = tested on: HCT-15 colon
HL-60(TB) leukemia = tested on: HL-60(TB) leukemia
HOP-62 NSCLC = tested on: HOP-62 NSCLC
HOP-92 NSCLC = tested on: HOP-92 NSCLC
HT29 colon = tested on: HT29 colon
IGROV1 ovarian = tested on: IGROV1 ovarian
K-562 leukemia = tested on: K-562 leukemia
KM12 colon = tested on: KM12 colon
LOX IMVI melanoma = tested on: LOX IMVI melanoma
M14 melanoma = tested on: M14 melanoma
MALME-3M melanoma = tested on: MALME-3M melanoma
MCF7 breast = tested on: MCF7 breast
MDA-MB-231 breast = tested on: MDA-MB-231 breast
MDA-MB-435 = tested on: MDA-MB-435
MDA-N = tested on: MDA-N
MOLT-4 leukemia = tested on: MOLT-4 leukemia
NCI-H226 lung = tested on: NCI-H226 lung
NCI-H23 lung = tested on: NCI-H23 lung
NCI-H460 lung = tested on: NCI-H460 lung
NCI-H522 lung = tested on: NCI-H522 lung
NCI/ADR-RES ovarian = tested on: NCI/ADR-RES ovarian
OVCAR-3 ovarian = tested on: OVCAR-3 ovarian
OVCAR-4 ovarian = tested on: OVCAR-4 ovarian
OVCAR-5 ovarian = tested on: OVCAR-5 ovarian
OVCAR-8 ovarian = tested on: OVCAR-8 ovarian
PC-3 prostate = tested on: PC-3 prostate
RPMI-8226 leukemia = tested on: RPMI-8226 leukemia
RXF 393 renal = tested on: RXF 393 renal
SF-268 CNS = tested on: SF-268 CNS
SF-295 CNS = tested on: SF-295 CNS
SF-539 CNS = tested on: SF-539 CNS
SK-MEL-2 melanoma = tested on: SK-MEL-2 melanoma
SK-MEL-28 melanoma = tested on: SK-MEL-28 melanoma
SK-OV-3 ovarian = tested on: SK-OV-3 ovarian
SN12C renal = tested on: SN12C renal
SNB-19 CNS = tested on: SNB-19 CNS
SNB-75 CNS = tested on: SNB-75 CNS
SR leukemia = tested on: SR leukemia
SW-620 colon = tested on: SW-620 colon
T-47D breast = tested on: T-47D breast
TK-10 renal = tested on: TK-10 renal
U251 CNS = tested on: U251 CNS
UACC-257 melanoma = tested on: UACC-257 melanoma
UACC-62 melanoma = tested on: UACC-62 melanoma
SK-MEL-5 melanoma = tested on: SK-MEL-5 melanoma

Structure (SMILES): OC1c2[nH]c3ccccc3c2CCN2CCCCC12 (stereo not drawn)
- TGI (786-0 renal): > 100 µM
- TGI (A498 renal): > 100 µM
- TGI (A549 NSCLC): > 100 µM
- TGI (ACHN renal): > 100 µM
- TGI (BT-549 breast): > 100 µM
- TGI (CAKI-1 renal): > 100 µM
- TGI (CCRF-CEM leukemia): > 100 µM
- TGI (COLO 205 colon): > 100 µM
- TGI (DU-145 prostate): > 100 µM
- TGI (EKVX NSCLC): > 100 µM
- TGI (HCC-2998 colon): > 100 µM
- TGI (HCT-116 colon): > 100 µM
- TGI (HCT-15 colon): > 100 µM
- TGI (HL-60(TB) leukemia): > 100 µM
- TGI (HOP-62 NSCLC): > 100 µM
- TGI (HOP-92 NSCLC): > 100 µM
- TGI (HT29 colon): > 100 µM
- TGI (IGROV1 ovarian): > 100 µM
- TGI (K-562 leukemia): > 100 µM
- TGI (KM12 colon): > 100 µM
- TGI (LOX IMVI melanoma): > 100 µM
- TGI (M14 melanoma): > 100 µM
- TGI (MALME-3M melanoma): > 100 µM
- TGI (MCF7 breast): > 100 µM
- TGI (MDA-MB-231 breast): > 100 µM
- TGI (MDA-MB-435): > 100 µM
- TGI (MDA-N): > 100 µM
- TGI (MOLT-4 leukemia): > 100 µM
- TGI (NCI-H226 lung): > 100 µM
- TGI (NCI-H23 lung): > 100 µM
- TGI (NCI-H460 lung): > 100 µM
- TGI (NCI-H522 lung): > 100 µM
- TGI (NCI/ADR-RES ovarian): > 100 µM
- TGI (OVCAR-3 ovarian): > 100 µM
- TGI (OVCAR-4 ovarian): > 100 µM
- TGI (OVCAR-5 ovarian): > 100 µM
- TGI (OVCAR-8 ovarian): > 100 µM
- TGI (PC-3 prostate): > 100 µM
- TGI (RPMI-8226 leukemia): > 100 µM
- TGI (RXF 393 renal): > 100 µM
- TGI (SF-268 CNS): > 100 µM
- TGI (SF-295 CNS): > 100 µM
- TGI (SF-539 CNS): > 100 µM
- TGI (SK-MEL-2 melanoma): > 100 µM
- TGI (SK-MEL-28 melanoma): > 100 µM
- TGI (SK-OV-3 ovarian): > 100 µM
- TGI (SN12C renal): > 100 µM
- TGI (SNB-19 CNS): > 100 µM
- TGI (SNB-75 CNS): > 100 µM
- TGI (SR leukemia): > 100 µM
- TGI (SW-620 colon): > 100 µM
- TGI (T-47D breast): > 100 µM
- TGI (TK-10 renal): > 100 µM
- TGI (U251 CNS): > 100 µM
- TGI (UACC-257 melanoma): > 100 µM
- TGI (UACC-62 melanoma): > 100 µM

Structure (SMILES): Fc1cccc(F)c1C1SCc2nc3cc4ccccc4cc3n21 (stereo not drawn)
- TGI (786-0 renal): > 100 µM
- TGI (A498 renal): 67.3 µM
- TGI (A549 NSCLC): > 100 µM
- TGI (BT-549 breast): > 100 µM
- TGI (CAKI-1 renal): > 100 µM
- TGI (CCRF-CEM leukemia): 62.4 µM
- TGI (COLO 205 colon): > 100 µM
- TGI (DU-145 prostate): > 100 µM
- TGI (EKVX NSCLC): > 100 µM
- TGI (HCC-2998 colon): 54.1 µM
- TGI (HCT-116 colon): > 100 µM
- TGI (HCT-15 colon): 55 µM
- TGI (HOP-62 NSCLC): > 100 µM
- TGI (HOP-92 NSCLC): 69.2 µM
- TGI (HT29 colon): 80.3 µM
- TGI (IGROV1 ovarian): 72.9 µM
- TGI (K-562 leukemia): 48.6 µM
- TGI (KM12 colon): > 100 µM
- TGI (LOX IMVI melanoma): > 100 µM
- TGI (M14 melanoma): > 100 µM
- TGI (MALME-3M melanoma): > 100 µM
- TGI (MCF7 breast): > 100 µM
- TGI (MDA-MB-231 breast): > 100 µM
- TGI (MDA-MB-435): > 100 µM
- TGI (MDA-N): > 100 µM
- TGI (MOLT-4 leukemia): 81.5 µM
- TGI (NCI-H226 lung): > 100 µM
- TGI (NCI-H23 lung): > 100 µM
- TGI (NCI/ADR-RES ovarian): > 100 µM
- TGI (OVCAR-3 ovarian): 36.6 µM
- TGI (OVCAR-4 ovarian): 36.7 µM
- TGI (OVCAR-5 ovarian): > 100 µM
- TGI (OVCAR-8 ovarian): > 100 µM
- TGI (PC-3 prostate): > 100 µM
- TGI (RPMI-8226 leukemia): 73.7 µM
- TGI (RXF 393 renal): > 100 µM
- TGI (SF-268 CNS): > 100 µM
- TGI (SF-295 CNS): > 100 µM
- TGI (SF-539 CNS): 45.1 µM
- TGI (SK-MEL-2 melanoma): > 100 µM
- TGI (SK-MEL-28 melanoma): > 100 µM
- TGI (SK-MEL-5 melanoma): > 100 µM
- TGI (SK-OV-3 ovarian): > 100 µM
- TGI (SN12C renal): > 100 µM
- TGI (SNB-75 CNS): 72.3 µM
- TGI (SR leukemia): > 100 µM
- TGI (SW-620 colon): > 100 µM
- TGI (T-47D breast): > 100 µM
- TGI (TK-10 renal): > 100 µM
- TGI (U251 CNS): > 100 µM
- TGI (UACC-257 melanoma): > 100 µM
- TGI (UACC-62 melanoma): > 100 µM
